Experimental data reported in ChEMBL document CHEMBL1145498, “A systematic interaction map of validated kinase inhibitors with Ser/Thr kinases” (Proc Natl Acad Sci U S A, 2007).

Target: Calcium/calmodulin-dependent protein kinase type II subunit beta (Homo sapiens) (UniProt Q13554)
Sequence (Q13554 whole entry): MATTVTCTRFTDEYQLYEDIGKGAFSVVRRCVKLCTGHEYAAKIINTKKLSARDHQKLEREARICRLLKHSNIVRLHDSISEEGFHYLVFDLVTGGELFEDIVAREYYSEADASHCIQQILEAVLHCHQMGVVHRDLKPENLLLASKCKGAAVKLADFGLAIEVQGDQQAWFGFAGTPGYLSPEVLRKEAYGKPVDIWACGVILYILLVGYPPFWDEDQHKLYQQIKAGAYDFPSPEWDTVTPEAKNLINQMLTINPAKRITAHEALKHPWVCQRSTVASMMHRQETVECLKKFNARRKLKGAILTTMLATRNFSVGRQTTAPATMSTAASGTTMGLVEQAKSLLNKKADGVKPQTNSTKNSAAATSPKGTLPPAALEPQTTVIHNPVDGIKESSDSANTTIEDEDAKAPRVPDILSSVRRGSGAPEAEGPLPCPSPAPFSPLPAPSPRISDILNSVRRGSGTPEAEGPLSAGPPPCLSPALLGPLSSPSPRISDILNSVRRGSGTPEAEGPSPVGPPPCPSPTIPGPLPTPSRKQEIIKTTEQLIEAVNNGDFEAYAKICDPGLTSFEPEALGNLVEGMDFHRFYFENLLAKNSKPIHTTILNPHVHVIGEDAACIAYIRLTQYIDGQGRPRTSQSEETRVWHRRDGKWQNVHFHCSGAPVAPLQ

In order of rising ΔTm:
1. O=C1c2ccccc2-[n+]2ccc3c([nH]c4ccccc43)c21 [FASCAPLYSIN CHLORIDE]  -2 °C
2. CC(=O)O/N=C1/C(=C2/C(=O)Nc3cc(Br)ccc32)Nc2ccccc21 [6-BROMOINDIRUBIN-3'-ACETOXIME]  0.9 °C
3. O=C1NC(=O)c2c1c1c3ccccc3n3c1c1c2c2ccccc2n1C1CCC3O1  1.2 °C

Target: Calcium/calmodulin-dependent protein kinase type II subunit gamma (Homo sapiens) (UniProt Q13555)
Sequence (Q13555 whole entry): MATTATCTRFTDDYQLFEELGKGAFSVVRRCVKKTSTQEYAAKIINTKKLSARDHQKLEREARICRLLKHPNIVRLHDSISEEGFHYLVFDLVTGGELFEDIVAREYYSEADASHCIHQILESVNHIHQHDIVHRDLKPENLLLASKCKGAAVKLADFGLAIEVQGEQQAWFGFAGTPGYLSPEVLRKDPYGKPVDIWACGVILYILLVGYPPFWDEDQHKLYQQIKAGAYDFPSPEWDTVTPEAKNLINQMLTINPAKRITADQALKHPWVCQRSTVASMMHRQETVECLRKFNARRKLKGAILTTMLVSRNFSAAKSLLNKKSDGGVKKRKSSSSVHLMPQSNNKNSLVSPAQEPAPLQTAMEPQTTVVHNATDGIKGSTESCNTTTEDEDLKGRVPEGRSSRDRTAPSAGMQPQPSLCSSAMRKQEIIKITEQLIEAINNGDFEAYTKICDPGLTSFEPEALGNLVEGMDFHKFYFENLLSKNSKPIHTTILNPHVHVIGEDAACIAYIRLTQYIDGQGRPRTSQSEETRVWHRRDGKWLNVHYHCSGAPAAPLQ

In order of rising ΔTm:
1. O=C1c2ccccc2-[n+]2ccc3c([nH]c4ccccc43)c21 [FASCAPLYSIN CHLORIDE]  -1.8 °C
2. O=C1NC(=O)c2c1c1c3ccccc3n3c1c1c2c2ccccc2n1C1CCC3O1  0 °C
3. CC(=O)O/N=C1/C(=C2/C(=O)Nc3cc(Br)ccc32)Nc2ccccc21 [6-BROMOINDIRUBIN-3'-ACETOXIME]  2.4 °C

Target: Serine/threonine-protein kinase OSR1 (Homo sapiens) (UniProt O95747)

In order of falling ΔTm:
1. O=C1NC(=O)c2c1c1c3ccccc3n3c1c1c2c2ccccc2n1C1CCC3O1  0.7 °C
2. CC(=O)O/N=C1/C(=C2/C(=O)Nc3cc(Br)ccc32)Nc2ccccc21 [6-BROMOINDIRUBIN-3'-ACETOXIME]  -1.1 °C
3. O=C1c2ccccc2-[n+]2ccc3c([nH]c4ccccc43)c21 [FASCAPLYSIN CHLORIDE]  -1.5 °C

Target: T1, Dual specificity mitogen-activated protein kinase kinase 6 (Homo sapiens) (UniProt P52564)
T1 sequence (whole entry): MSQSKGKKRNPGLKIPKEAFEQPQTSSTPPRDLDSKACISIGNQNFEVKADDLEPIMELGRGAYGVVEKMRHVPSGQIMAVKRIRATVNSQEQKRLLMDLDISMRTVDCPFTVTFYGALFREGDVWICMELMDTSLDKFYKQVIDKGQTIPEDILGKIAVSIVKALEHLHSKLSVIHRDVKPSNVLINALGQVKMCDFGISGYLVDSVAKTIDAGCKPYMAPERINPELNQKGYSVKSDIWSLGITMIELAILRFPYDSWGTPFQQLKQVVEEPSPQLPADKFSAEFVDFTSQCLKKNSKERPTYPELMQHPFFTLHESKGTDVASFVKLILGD

In order of rising ΔTm:
1. O=C1c2ccccc2-[n+]2ccc3c([nH]c4ccccc43)c21 [FASCAPLYSIN CHLORIDE]  -0.8 °C
2. O=C1NC(=O)c2c1c1c3ccccc3n3c1c1c2c2ccccc2n1C1CCC3O1  -0.2 °C
3. CC(=O)O/N=C1/C(=C2/C(=O)Nc3cc(Br)ccc32)Nc2ccccc21 [6-BROMOINDIRUBIN-3'-ACETOXIME]  0.8 °C

Tested on: not listed separately
Assay: Inhibition of Cdk4/cyclin D1

Molecule CC(=O)O/N=C1/C(=C2/C(=O)Nc3cc(Br)ccc32)Nc2ccccc21 [6-BROMOINDIRUBIN-3'-ACETOXIME] has an IC50 of at least 10 µM.

Target: Calcium/calmodulin-dependent protein kinase type II subunit alpha (Homo sapiens) (UniProt Q9UQM7)

In order of rising ΔTm:
1. O=C1c2ccccc2-[n+]2ccc3c([nH]c4ccccc43)c21 [FASCAPLYSIN CHLORIDE]  -0.5 °C
2. O=C1NC(=O)c2c1c1c3ccccc3n3c1c1c2c2ccccc2n1C1CCC3O1  -0.4 °C
3. CC(=O)O/N=C1/C(=C2/C(=O)Nc3cc(Br)ccc32)Nc2ccccc21 [6-BROMOINDIRUBIN-3'-ACETOXIME]  0.9 °C

Target: Mitogen-activated protein kinase 6 (Homo sapiens) (UniProt Q16659)

In order of falling ΔTm:
1. O=C1NC(=O)c2c1c1c3ccccc3n3c1c1c2c2ccccc2n1C1CCC3O1  0.5 °C
2. CC(=O)O/N=C1/C(=C2/C(=O)Nc3cc(Br)ccc32)Nc2ccccc21 [6-BROMOINDIRUBIN-3'-ACETOXIME]  0.3 °C
3. O=C1c2ccccc2-[n+]2ccc3c([nH]c4ccccc43)c21 [FASCAPLYSIN CHLORIDE]  -1.9 °C

Target: TRAF2 and NCK-interacting protein kinase (Homo sapiens) (UniProt Q9UKE5)

In order of rising ΔTm:
1. O=C1c2ccccc2-[n+]2ccc3c([nH]c4ccccc43)c21 [FASCAPLYSIN CHLORIDE]  -0.9 °C
2. CC(=O)O/N=C1/C(=C2/C(=O)Nc3cc(Br)ccc32)Nc2ccccc21 [6-BROMOINDIRUBIN-3'-ACETOXIME]  0.4 °C
3. O=C1NC(=O)c2c1c1c3ccccc3n3c1c1c2c2ccccc2n1C1CCC3O1  7.6 °C

Target: Dual specificity protein kinase CLK3 (Homo sapiens) (UniProt P49761)
Sequence (P49761 whole entry, looked up): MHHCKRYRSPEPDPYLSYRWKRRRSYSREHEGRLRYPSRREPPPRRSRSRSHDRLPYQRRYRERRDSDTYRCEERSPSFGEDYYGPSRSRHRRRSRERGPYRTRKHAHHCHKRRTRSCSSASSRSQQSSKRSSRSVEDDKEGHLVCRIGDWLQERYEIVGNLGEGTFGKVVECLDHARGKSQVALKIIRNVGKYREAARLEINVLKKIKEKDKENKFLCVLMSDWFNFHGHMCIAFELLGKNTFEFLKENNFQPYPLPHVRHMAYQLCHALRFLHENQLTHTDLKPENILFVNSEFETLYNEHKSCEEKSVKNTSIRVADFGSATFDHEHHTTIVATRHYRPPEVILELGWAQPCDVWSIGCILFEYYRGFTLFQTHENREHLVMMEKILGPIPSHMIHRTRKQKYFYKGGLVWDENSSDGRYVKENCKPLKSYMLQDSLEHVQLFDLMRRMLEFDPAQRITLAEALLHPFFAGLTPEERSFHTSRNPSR

In order of falling ΔTm:
1. O=C1NC(=O)c2c1c1c3ccccc3n3c1c1c2c2ccccc2n1C1CCC3O1  0.5 °C
2. CC(=O)O/N=C1/C(=C2/C(=O)Nc3cc(Br)ccc32)Nc2ccccc21 [6-BROMOINDIRUBIN-3'-ACETOXIME]  -0.4 °C
3. O=C1c2ccccc2-[n+]2ccc3c([nH]c4ccccc43)c21 [FASCAPLYSIN CHLORIDE]  -0.9 °C

Target: Death-associated protein kinase 3 (Homo sapiens) (UniProt O43293)
Sequence (O43293 whole entry, looked up): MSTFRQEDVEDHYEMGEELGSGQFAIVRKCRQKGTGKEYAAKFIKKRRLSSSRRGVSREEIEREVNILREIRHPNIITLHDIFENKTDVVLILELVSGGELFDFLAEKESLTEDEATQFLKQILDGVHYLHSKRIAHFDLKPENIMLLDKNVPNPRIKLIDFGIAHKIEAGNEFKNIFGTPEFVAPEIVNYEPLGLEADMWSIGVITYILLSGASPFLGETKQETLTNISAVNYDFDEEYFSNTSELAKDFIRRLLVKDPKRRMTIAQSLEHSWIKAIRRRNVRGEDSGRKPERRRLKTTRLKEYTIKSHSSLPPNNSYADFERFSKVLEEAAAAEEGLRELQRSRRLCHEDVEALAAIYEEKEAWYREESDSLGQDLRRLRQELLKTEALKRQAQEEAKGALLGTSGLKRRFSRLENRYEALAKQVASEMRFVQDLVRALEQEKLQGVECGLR

In order of falling ΔTm:
1. O=C1c2ccccc2-[n+]2ccc3c([nH]c4ccccc43)c21 [FASCAPLYSIN CHLORIDE]  -0.5 °C
2. O=C1NC(=O)c2c1c1c3ccccc3n3c1c1c2c2ccccc2n1C1CCC3O1  -0.5 °C
3. CC(=O)O/N=C1/C(=C2/C(=O)Nc3cc(Br)ccc32)Nc2ccccc21 [6-BROMOINDIRUBIN-3'-ACETOXIME]  -1.3 °C

Target: Calcium/calmodulin-dependent protein kinase type II subunit delta (Homo sapiens) (UniProt Q13557)

In order of rising ΔTm:
1. O=C1c2ccccc2-[n+]2ccc3c([nH]c4ccccc43)c21 [FASCAPLYSIN CHLORIDE]  -2.9 °C
2. CC(=O)O/N=C1/C(=C2/C(=O)Nc3cc(Br)ccc32)Nc2ccccc21 [6-BROMOINDIRUBIN-3'-ACETOXIME]  -0.3 °C
3. O=C1NC(=O)c2c1c1c3ccccc3n3c1c1c2c2ccccc2n1C1CCC3O1  -0.2 °C

Target: Serine/threonine-protein kinase PLK1 (Homo sapiens) (UniProt P53350)
Sequence (P53350 whole entry): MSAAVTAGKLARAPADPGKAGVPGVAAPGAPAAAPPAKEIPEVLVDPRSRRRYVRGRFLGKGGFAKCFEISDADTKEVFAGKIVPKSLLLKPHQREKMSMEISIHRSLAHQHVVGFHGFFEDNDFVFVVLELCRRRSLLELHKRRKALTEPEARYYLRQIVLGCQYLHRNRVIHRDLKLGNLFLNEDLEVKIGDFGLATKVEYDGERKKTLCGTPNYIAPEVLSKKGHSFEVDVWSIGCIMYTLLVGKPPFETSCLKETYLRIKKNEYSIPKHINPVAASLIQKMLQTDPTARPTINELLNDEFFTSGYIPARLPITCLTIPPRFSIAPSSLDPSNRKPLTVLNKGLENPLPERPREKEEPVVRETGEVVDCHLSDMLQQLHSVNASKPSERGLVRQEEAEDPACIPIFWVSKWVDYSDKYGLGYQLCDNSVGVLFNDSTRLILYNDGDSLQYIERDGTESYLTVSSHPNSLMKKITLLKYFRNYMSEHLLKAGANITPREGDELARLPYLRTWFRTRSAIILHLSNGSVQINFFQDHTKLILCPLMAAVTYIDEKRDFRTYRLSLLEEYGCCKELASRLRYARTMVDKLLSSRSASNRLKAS

In order of rising ΔTm:
1. CC(=O)O/N=C1/C(=C2/C(=O)Nc3cc(Br)ccc32)Nc2ccccc21 [6-BROMOINDIRUBIN-3'-ACETOXIME]  0.4 °C
2. O=C1c2ccccc2-[n+]2ccc3c([nH]c4ccccc43)c21 [FASCAPLYSIN CHLORIDE]  0.8 °C
3. O=C1NC(=O)c2c1c1c3ccccc3n3c1c1c2c2ccccc2n1C1CCC3O1  4 °C

Target: Dual specificity mitogen-activated protein kinase kinase 2 (Homo sapiens, UniProt P36507)
Sequence (P36507 whole entry): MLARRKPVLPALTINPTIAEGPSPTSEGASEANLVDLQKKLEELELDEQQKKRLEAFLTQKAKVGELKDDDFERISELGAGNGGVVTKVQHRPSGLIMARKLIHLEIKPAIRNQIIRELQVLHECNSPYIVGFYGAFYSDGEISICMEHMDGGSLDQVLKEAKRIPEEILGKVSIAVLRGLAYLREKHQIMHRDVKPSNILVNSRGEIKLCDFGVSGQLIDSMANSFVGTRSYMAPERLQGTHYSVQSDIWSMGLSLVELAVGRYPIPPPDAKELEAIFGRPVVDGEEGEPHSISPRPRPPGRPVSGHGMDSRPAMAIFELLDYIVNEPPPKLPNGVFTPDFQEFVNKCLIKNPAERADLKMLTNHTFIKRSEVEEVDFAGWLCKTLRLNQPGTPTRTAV

In order of falling ΔTm:
1. CC(=O)O/N=C1/C(=C2/C(=O)Nc3cc(Br)ccc32)Nc2ccccc21 [6-BROMOINDIRUBIN-3'-ACETOXIME]  3.1 °C
2. O=C1NC(=O)c2c1c1c3ccccc3n3c1c1c2c2ccccc2n1C1CCC3O1  -0.2 °C
3. O=C1c2ccccc2-[n+]2ccc3c([nH]c4ccccc43)c21 [FASCAPLYSIN CHLORIDE]  -0.8 °C

Target: T2, Serine/threonine-protein kinase VRK1 (Homo sapiens) (UniProt Q99986)
T2 sequence (whole entry): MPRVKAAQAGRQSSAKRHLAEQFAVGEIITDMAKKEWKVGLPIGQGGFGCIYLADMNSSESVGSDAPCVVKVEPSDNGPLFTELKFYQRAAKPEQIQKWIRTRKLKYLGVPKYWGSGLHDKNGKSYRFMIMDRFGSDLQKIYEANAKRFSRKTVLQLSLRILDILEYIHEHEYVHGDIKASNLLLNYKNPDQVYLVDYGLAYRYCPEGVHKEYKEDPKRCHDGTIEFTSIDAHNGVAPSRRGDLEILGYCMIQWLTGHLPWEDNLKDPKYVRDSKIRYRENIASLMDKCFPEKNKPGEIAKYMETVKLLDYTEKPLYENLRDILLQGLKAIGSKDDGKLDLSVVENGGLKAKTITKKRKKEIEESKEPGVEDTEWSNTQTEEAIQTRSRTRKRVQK

In order of rising ΔTm:
1. O=C1c2ccccc2-[n+]2ccc3c([nH]c4ccccc43)c21 [FASCAPLYSIN CHLORIDE]  -1.2 °C
2. O=C1NC(=O)c2c1c1c3ccccc3n3c1c1c2c2ccccc2n1C1CCC3O1  -0.1 °C
3. CC(=O)O/N=C1/C(=C2/C(=O)Nc3cc(Br)ccc32)Nc2ccccc21 [6-BROMOINDIRUBIN-3'-ACETOXIME]  0.3 °C

Target: T3, Myotonin-protein kinase (Homo sapiens) (UniProt Q09013)
T3 sequence (whole entry): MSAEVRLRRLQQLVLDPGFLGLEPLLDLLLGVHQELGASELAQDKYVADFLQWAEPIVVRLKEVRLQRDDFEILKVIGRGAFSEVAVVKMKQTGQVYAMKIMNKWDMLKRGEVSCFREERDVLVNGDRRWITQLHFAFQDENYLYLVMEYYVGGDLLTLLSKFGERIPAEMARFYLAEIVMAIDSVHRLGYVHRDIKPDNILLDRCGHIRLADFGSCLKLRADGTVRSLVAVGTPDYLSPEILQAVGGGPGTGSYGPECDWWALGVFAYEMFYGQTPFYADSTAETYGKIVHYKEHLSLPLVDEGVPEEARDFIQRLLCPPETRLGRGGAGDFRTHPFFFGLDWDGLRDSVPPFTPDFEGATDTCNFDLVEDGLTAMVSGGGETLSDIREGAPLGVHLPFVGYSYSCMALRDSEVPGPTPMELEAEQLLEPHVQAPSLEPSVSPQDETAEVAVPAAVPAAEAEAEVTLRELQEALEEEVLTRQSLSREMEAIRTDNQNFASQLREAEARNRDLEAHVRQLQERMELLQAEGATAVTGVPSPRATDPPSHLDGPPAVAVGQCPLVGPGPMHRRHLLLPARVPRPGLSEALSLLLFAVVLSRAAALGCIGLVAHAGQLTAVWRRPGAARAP

In order of rising ΔTm:
1. O=C1c2ccccc2-[n+]2ccc3c([nH]c4ccccc43)c21 [FASCAPLYSIN CHLORIDE]  -0.9 °C
2. CC(=O)O/N=C1/C(=C2/C(=O)Nc3cc(Br)ccc32)Nc2ccccc21 [6-BROMOINDIRUBIN-3'-ACETOXIME]  0.7 °C
3. O=C1NC(=O)c2c1c1c3ccccc3n3c1c1c2c2ccccc2n1C1CCC3O1  6.8 °C

Target: Casein kinase I isoform gamma-1 (Homo sapiens) (UniProt Q9HCP0)
Sequence (Q9HCP0 whole entry, looked up, canonical isoform): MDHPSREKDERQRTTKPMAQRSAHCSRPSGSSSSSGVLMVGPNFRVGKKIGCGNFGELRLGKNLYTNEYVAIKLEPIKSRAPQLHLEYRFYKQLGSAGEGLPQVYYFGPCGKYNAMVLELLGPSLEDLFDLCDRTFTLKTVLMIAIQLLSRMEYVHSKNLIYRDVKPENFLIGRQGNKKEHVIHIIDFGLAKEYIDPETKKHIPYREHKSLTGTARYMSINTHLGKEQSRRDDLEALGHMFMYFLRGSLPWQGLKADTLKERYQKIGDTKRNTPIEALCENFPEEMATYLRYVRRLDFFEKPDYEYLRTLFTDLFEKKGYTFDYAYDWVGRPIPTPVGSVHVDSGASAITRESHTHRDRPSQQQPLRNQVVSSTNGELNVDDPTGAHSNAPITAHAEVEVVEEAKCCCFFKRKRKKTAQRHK

In order of falling ΔTm:
1. CC(=O)O/N=C1/C(=C2/C(=O)Nc3cc(Br)ccc32)Nc2ccccc21 [6-BROMOINDIRUBIN-3'-ACETOXIME]  0.6 °C
2. O=C1NC(=O)c2c1c1c3ccccc3n3c1c1c2c2ccccc2n1C1CCC3O1  0.2 °C
3. O=C1c2ccccc2-[n+]2ccc3c([nH]c4ccccc43)c21 [FASCAPLYSIN CHLORIDE]  -0.6 °C

Target: Calcium/calmodulin-dependent protein kinase type 1G (Homo sapiens) (UniProt Q96NX5)
Sequence (Q96NX5 whole entry): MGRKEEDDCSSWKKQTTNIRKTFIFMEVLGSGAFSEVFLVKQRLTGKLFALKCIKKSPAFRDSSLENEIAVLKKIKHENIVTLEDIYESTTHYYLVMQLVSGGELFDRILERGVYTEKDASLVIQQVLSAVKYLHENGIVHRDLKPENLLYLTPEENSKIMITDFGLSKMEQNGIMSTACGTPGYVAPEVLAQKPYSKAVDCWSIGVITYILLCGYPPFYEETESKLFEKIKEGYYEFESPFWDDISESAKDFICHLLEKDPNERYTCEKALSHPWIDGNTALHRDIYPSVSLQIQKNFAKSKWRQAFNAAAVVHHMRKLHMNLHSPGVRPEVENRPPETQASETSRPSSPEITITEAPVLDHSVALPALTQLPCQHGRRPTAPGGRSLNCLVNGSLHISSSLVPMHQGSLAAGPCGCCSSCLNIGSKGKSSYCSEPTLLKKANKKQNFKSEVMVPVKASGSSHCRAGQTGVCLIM

In order of rising ΔTm:
1. O=C1c2ccccc2-[n+]2ccc3c([nH]c4ccccc43)c21 [FASCAPLYSIN CHLORIDE]  -3.5 °C
2. CC(=O)O/N=C1/C(=C2/C(=O)Nc3cc(Br)ccc32)Nc2ccccc21 [6-BROMOINDIRUBIN-3'-ACETOXIME]  -0.6 °C
3. O=C1NC(=O)c2c1c1c3ccccc3n3c1c1c2c2ccccc2n1C1CCC3O1  -0.2 °C

Target: Mitogen-activated protein kinase 3 (Homo sapiens, UniProt P27361)
Sequence (P27361 whole entry): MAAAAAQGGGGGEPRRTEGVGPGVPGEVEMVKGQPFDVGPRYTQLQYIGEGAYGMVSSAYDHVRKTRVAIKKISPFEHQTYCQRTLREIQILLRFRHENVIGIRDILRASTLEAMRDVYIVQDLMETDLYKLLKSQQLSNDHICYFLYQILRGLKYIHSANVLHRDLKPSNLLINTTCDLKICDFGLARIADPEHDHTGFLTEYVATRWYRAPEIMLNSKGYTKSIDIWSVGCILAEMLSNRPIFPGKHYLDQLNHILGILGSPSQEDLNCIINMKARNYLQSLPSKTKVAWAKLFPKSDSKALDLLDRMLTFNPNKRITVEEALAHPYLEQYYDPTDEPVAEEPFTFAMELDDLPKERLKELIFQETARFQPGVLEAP

In order of falling ΔTm:
1. O=C1c2ccccc2-[n+]2ccc3c([nH]c4ccccc43)c21 [FASCAPLYSIN CHLORIDE]  0.3 °C
2. CC(=O)O/N=C1/C(=C2/C(=O)Nc3cc(Br)ccc32)Nc2ccccc21 [6-BROMOINDIRUBIN-3'-ACETOXIME]  0 °C
3. O=C1NC(=O)c2c1c1c3ccccc3n3c1c1c2c2ccccc2n1C1CCC3O1  -0.2 °C

Target: Dual specificity protein kinase CLK2 (Homo sapiens) (UniProt P49760)
Sequence (P49760 whole entry, looked up): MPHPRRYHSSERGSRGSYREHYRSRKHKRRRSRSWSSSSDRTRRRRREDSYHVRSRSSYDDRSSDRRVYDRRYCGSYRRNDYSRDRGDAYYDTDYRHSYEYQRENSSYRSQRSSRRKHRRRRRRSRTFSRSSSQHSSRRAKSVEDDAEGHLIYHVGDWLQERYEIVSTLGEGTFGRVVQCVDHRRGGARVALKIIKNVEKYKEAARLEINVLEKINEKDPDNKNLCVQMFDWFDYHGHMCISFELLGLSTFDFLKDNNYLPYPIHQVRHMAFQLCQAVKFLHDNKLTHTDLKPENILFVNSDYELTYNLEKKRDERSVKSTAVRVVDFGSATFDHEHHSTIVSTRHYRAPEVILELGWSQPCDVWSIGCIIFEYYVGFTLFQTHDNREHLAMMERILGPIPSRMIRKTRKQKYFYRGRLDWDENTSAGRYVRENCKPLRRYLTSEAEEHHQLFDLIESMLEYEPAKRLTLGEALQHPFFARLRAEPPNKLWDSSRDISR

In order of rising ΔTm:
1. O=C1c2ccccc2-[n+]2ccc3c([nH]c4ccccc43)c21 [FASCAPLYSIN CHLORIDE]  -0.4 °C
2. O=C1NC(=O)c2c1c1c3ccccc3n3c1c1c2c2ccccc2n1C1CCC3O1  1.7 °C
3. CC(=O)O/N=C1/C(=C2/C(=O)Nc3cc(Br)ccc32)Nc2ccccc21 [6-BROMOINDIRUBIN-3'-ACETOXIME]  2.3 °C
